Positions of bridges follow the written chain, without caps; N, C: chain ends. Non-standard residues stand in square brackets, D forms with d. No end group written: not given here.
Assays:
S. mutans UA159 biofilms = experiment: ThT assay for S. mutans biofilms (plate); type: cell-based, Streptococcus mutans; settings: 28 h, vs control
Text: (§1) FIG. 16. Synthetic α-sheet peptides as a novel anti-biofilm agent for the dental pathogen, S. mutans. A) ThT fluorescence of S. mutans biofilms decreases upon addition of synthetic α-sheet peptides AP193, AP407, and AP90. […] D) synthetic α-sheet peptides added to S. mutans grown on hydroxyapatite ceramic particles led to significant decreases in ThT fluorescence.
The peptides AP90, AP407, AP193, P411, and P1 were screened for their ability to inhibit amyloid fibril formation using an optimized ThT assay for S. mutans biofilms. Briefly, S. mutans UA159 overnight cultures were diluted in BHI medium with 30 mM sucrose and 1% (v/v) EC Oxyrase(R) to ensure an oxygen-limited environment. Inocula were then mixed with inhibitors in water, or only water for blank conditions. Biofilms were cultivated at 37° C. in 96 well plates. After 28 h, planktonic cells and media were aspirated. Biofilms were rinsed once with PBS and then resuspended in a solution of 22 μM ThT in PBS. Stained biofilm suspensions were transferred to a new microtiter plate and their fluorescence was measured in a plate reader.
Several synthetic peptides caused significant suppression in the amyloid content of S. mutans biofilms, and the effect was specific to those with α-sheet structure. AP193 at 40 μM decreased ThT fluorescence by 33% (p=0.007). […] AP90 caused a 16% decrease in ThT fluorescence at 85 μM (p=0.017).

PSMα1 = test system: PSMα1
Text: FIG. 6. […] Error bars represent the standard error of the mean.

[1] = test system: P. aeruginosa PAO1 pFap biofilms; experiment: In situ ThT assay of Fap amyloid in P. aeruginosa biofilms; type: cell-based; settings: LB medium, 37° C., 48 h
Text: FIG. 15. Action of synthetic α-sheet peptides in the P. aeruginosa system. […] Error bars indicate standard deviation of the mean of at least three replicates. Significance values are p<0.05: *, p<0.01: **, p<0.001: ***.
The strain used in these experiments is a fap-overexpressing mutant of P. aeruginosa PAO1 WT called PAO1 pFap. The overexpression is generated by cloning the entire fap operon into a host expression vector, which is then transformed into PAO1 WT. […] For in situ assays, overnight cultures from a single colony of freshly transformed PAO1 pFap were used to inoculate 96 well plates in the presence of synthetic α-sheet peptides in LB medium. As a control, biofilms of the deletion strain PAO1 Δfap were grown under the same conditions. Plates were covered and incubated at 37° C. for 48 h. After incubation, planktonic cells and media were gently removed from the biofilms by pipetting. The biofilms were rinsed once with PBS prior to staining with 20 μM ThT. Stained biofilms were resuspended by pipetting and sonication, and the fluorescence of ThT was measured at 448/485 nm in a plate reader.

[2] = test system: S. mutans biofilms on hydroxyapatite; experiment: ThT assay of S. mutans biofilms grown on ceramic-hydroxyapatite particles; type: cell-based, Streptococcus mutans; settings: 24 h
Method: as §1
To assess peptide inhibition of amyloid fibrils in S. mutans adhered to tooth-like surfaces, biofilms were grown on ceramic-hydroxyapatite particles. Hydroxyapatite is the primary mineral present in the structure of a tooth, so this assay is a more physiologically relevant model of S. mutans accumulation. ThT fluorescence of adhered biofilms was determined after 24 h of growth. Synthetic α-sheet peptides were added to medium and hydroxyapatite ceramic particles prior to cell growth. […] Both AP193 monomer and dimer caused significant decreases in ThT fluorescence (23% and 63%, respectively; FIG. 16D).

S. aureus MN8 biofilms = experiment: ThT fluorescence assay of amyloid formation in S. aureus MN8 biofilm cultures; type: cell-based, Staphylococcus aureus; settings: for Effect on amyloid fibril formation in S. aureus biofilms (ThT fluorescence, FIG. 1B): MN8 and SH1000 WT strains, particularly MN8; for Effect on amyloid fibril formation in S. aureus biofilms (ThT fluorescence, FIG. 1B) / Reduction of amyloid fibril formation (ThT fluorescence): 24 h, 37° C.; for Reduction of amyloid fibril formation (ThT fluorescence): S. aureus MN8 biofilm, peptide 80 μM unless otherwise noted, vs peptide-free control
Method: We developed a novel protocol to identify amyloid fibril formation during biofilm development in two S. aureus strains—SH1000 WT, a rsbU^+ laboratory strain^27, and MN8, a clinical strain isolated from the human urogenital tract (Table 1). After 24 hours of batch growth in microtiter plates, biofilms were washed and incubated with Thioflavin T (ThT), and the resulting fluorescence signals served as a proxy for the extent of PSM fibril formation in the EM (FIG. 1A). Next, we utilized this assay to test α-sheet amyloid inhibitor designs and control peptides (sequences provided in Table 2) in batch biofilm cultures. The first inhibitor used is AP90 (Alternating Peptide #90, referred to as α1 previously^25,26). […] The AP401 and AP407 designs display similar spectral features by CD, except that AP401 has a positive signal in the random coil region (FIG. 7). AP401 has the same sequence as AP90 but with reversed chirality in the strands and turn, thus the D-amino acids give rise to an approximate mirror image CD spectrum relative to AP90. AP407 is a variant of AP90 with a disulfide bond. An unstructured random coil peptide (RC) and a β-hairpin (β) are used as structural controls.
Designed and control peptides were added to the growth medium prior to inoculation, and biofilms were allowed to grow for 24 hours at 37° C. Planktonic cells were removed and the remaining biofilms were assayed for amyloid content using ThT. […] The disulfide-linked peptide design, AP407, reduced the amyloid fibril formation by 46% and 56% in the MN8 and SH1000 WT strains, respectively. In contrast, the random coil and β-sheet control peptides were ineffective.
Overnight cultures of S. aureus (see Table 1 for a list of strains used in this study) were spun down and re-suspended in fresh Luria-Bertani (LB) media to an optical density of 0.1 (600 nm). These cultures were then mixed with reconstituted peptide (or water, in the case of controls) and aliquoted in quadruplicate into wells of a clear 48-well plate (Corning, TC-treated polystyrene). The final concentration of peptide in each well was 80 μM, unless otherwise noted. Plates were covered and biofilms were grown at 37° C. for 24 hours with gentle rocking. At this time, medium and planktonic cells were removed from wells using a vacuum and the remaining adherent biofilms were rinsed once with PBS (BupH™, Thermo Scientific). Thioflavin T (ThT), an established fluorescent label for amyloid fibrils^40, was then added to each well at a concentration of 22 μM and biofilms were incubated statically for 4 hours at room temperature. The solution was then removed from the wells and PBS was added with vigorous pipetting to detach biofilms from the plate surface. Plates were shaken at high speed for 1 minute on a plate shaker to detach any remaining biofilm material and homogenize the samples. The detached biofilm suspensions were transferred to a 96-well black-walled plate (Corning, TC-treated polystyrene) and ThT fluorescence was read at 438/495 nm on a Perkin-Elmer Enspire™ plate reader. Fluorescence measurements were corrected by subtracting the background intensity of identical samples without ThT. For calculation of live:dead cell ratios, biofilm suspensions were prepared as described above and cells were stained with a 1:1 mixture of Syto9 and propidium iodide (LIVE/DEAD BacLight™ Bacterial Viability Kit, Thermo Scientific). After 15 minutes of incubation at room temperature, fluorescence ratios of the two dyes were determined using a Perkin-Elmer Enspire™ plate reader.

Row | Substance | Decrease in ThT fluorescence (S. mutans UA159 biofilms; 40 μM) [%] | Binding of PSMα1 to peptide-functionalized beads (PSMα1; PSMα1 pre-incubated 0, 24, 48 h) | Amyloid formation in biofilms (ThT) [1] | Decrease in ThT fluorescence ([2]; concentration not given) [%] | Decrease in ThT fluorescence (S. mutans UA159 biofilms; 85 μM) [%] | Effect on amyloid fibril formation in S. aureus biofilms (ThT fluorescence, FIG. 1B) (S. aureus MN8 biofilms) | Reduction of amyloid fibril formation (ThT fluorescence) (S. aureus MN8 biofilms) [%] | Fibril formation with increasing peptide concentration (FIG. 1C) (S. aureus MN8 biofilms; S. aureus MN8 biofilms, increasing concentrations in culture medium) | Change of binding affinity as PSMα1 converted to β-sheet (PSMα1; PSMα1 at 146 h vs end of lag phase) | Decrease in ThT fluorescence ([2]; 100 μM) [%]
1 | RGEmNyFwMNEYYGWtMnCkMGR (RGE[dM]N[dY]F[dW]MNEYYGW[dT]M[dN]C[dK]MGR) [AP193, hydrophobic AP90 derivative, variant to support different chemical coupling reactions] | 33 | preferentially bound α-sheet rich PSMα1 (48 h) over earlier time points | significantly inhibit amyloid formation | 23 | – | – | – | – | – | –
2 | RGEmNlSwMNEYSGWtMnLkMGR (RGEMNLSWMNEYSGWTMNLKMGR; not fully specified (residues 4, 6, 8, 16, 18, 20); printed as RGEmNlSwMNEYSGWtMnLkMGR) [AP90] | – | – | significantly inhibit amyloid formation | – | 16 | significant reduction in amyloid fibril formation | 47 | decreased in a dose-dependent manner | dropped by two orders of magnitude | 20
3 | RGEmNlCwMNEYSGWcMnLkMGR (RGE[dM]N[dL]C[dW]MNEYSGW[dC]M[dN]L[dK]MGR; disulfide 7-16 (inferred)) [AP407, variant of AP90 with a disulfide bond] | – | – | significantly inhibit amyloid formation | – | 42 | significant reduction in amyloid fibril formation | 46 | – | – | –

Source: patent US11033604B2, “Reagents and methods for treating bacterial infection” (priority 2018, dated 2021)
